Assay results published in patent US20120003655A1, “IDENTIFICATION OF NEUROPROTECTIVE AGENTS USING PRO-INFLAMMATORY HUMAN GLIAL CELLS” (The Salk Institute for Biological Studies, priority 2008, published 2012).
Entries after “also recorded” stand apart in the source; their conditions may differ.

Key:
[1] = tested on: SOD^G37R mutated astrocyte cultures; test: Detection of ROS production in SOD1 G37R astrocytes after anti-oxidant treatment; assay type: cell-based, human; conditions: 48 hours treatment, vs vehicle (EtOH or DMSO); apocynin 300 μM, alpha lipoic acid 50 μg/mL, epicatechin 10 μM, luteolin 5 μM, resveratrol 5 μM
Procedure: Primary astrocyte culture. Human primary astrocytes (HA1800) were obtained from ScienCell Research Laboratories™ (Carlsbad, Calif.) and were cultured according to the providers' guidelines. Briefly, the astrocytes were isolated from fetal human brain (cerebral cortex) and cultured for no more than 15 passages in astrocyte media (AM 1801). The infections were performed in 80% confluent T75 flasks followed by incubation with the lentivirus expressing either the wild type of SOD1 (LV-SOD1^wT) or the mutated form of SOD1 (LV-SOD1^G37R).
Detection of ROS production. Detection of total cellular ROS was performed using the Image-iT LIVE Green reactive Oxygen Species Detection Kit, according to the manufacturer's directions (Molecular Probes, Invitrogen). Briefly, this assay is based on the principle that the live cell permeable compound, carboxy-H2DCFDA, emits a bright green fluorescence when it is oxidized in the presence of ROS. The quantification of the ROS production was addressed in 2 ways: 1) counting the number of fluorescent cells and 2) measuring the intensity of the fluorescence emitted by the cells. The relative fluorescence intensity (arbitrary units ranging from 0 to 255, or black to white) was measured in randomly selected fields for each treatment and was analyzed and quantified using ImageProPlus software.
Anti-oxidants treatment. Anti-oxidants stock solutions were diluted in astrocyte media and directly applied to astrocyte monolayers. The cultures were treated for 48 hours prior to reactive species of oxygen (ROS) detection. The compounds used in the experiment were epicatechin (E4018 Sigma Aldrich, 10 μM), luteolin (L9283 Sigma-Aldrich, 5 μM), resveratrol (R5010Sigma-Aldrich, 5 μM), apocynin (178385 Calbiochem, 300 μM), alpha lipoic acid (T5625, Sigma-Aldrich, 50 μg/mL). For neuronal co-cultures, the astrocytes were pre-treated for 48 hours with apocynin and the rosettes were plated on top of them. The co-cultures were carried for 3 more weeks and the medium containing apocynin was replaced three more times during the co-culture period.
A total of five compounds and their respective vehicles (ethanol (EtOH) or DMSO) were tested in SOD^G37R mutated astrocyte cultures to address their anti-oxidant potential (FIG. 4A).

[2] = tested on: HESC-derived motor neurons co-cultured with SOD1^G37R astrocytes; test: Co-culture of HESC-derived motor neurons with SOD1 astrocytes, quantification of ChAT-positive cells; assay type: cell-based, human; conditions: astrocytes pre-treated 48 hours with apocynin, co-culture 3 more weeks
Procedure: Culture conditions and differentiation of HESC. The HUES cells lines used in this study were HUES9 (Douglas Melton-WiCell) and Cythera 203 (Novocell Inc. San Diego, Calif.). The HESC were differentiated in vitro in motor neurons, adapting the protocol previously described elsewhere (Li et al., 2005). Briefly, the cells were manually dissociated to form embryoid bodies (EBs) and cultured in suspension for 5-6 days. The EBs were then plated in laminin/poli-ornithin coated plates in the presence of a neural induction medium consisting of F12/DMEM (Invitrogen, Carlsbad, Calif.), N2 supplement and 1 μM retinoic acid (RA). The cells started to organize into neural tube-like rosettes and, after 7-8 days in culture, sonic hedgehog (SHH, 500 ng/ml, R&D Systems) and cAMP (1 μM) were added to the culture media for 1 more week. The rosettes were then manually selected using a 10× magnifier (Zeiss) and gently dissociated (by pipetting up and down in a Hanks' enzyme free cell dissociation buffer-Invitrogene). After dissociation, rosettes were pelleted at 1,000 rpm and re-plated either on laminin/poli-ornithine coated coverslips (for direct differentiation) or on top of astrocyte feeder layers for the co-culture experiments. […]

## COc1cc(C(C)=O)ccc1O [apocynin]
[1]
  percentage of cells that were able to produce ROS (percentage of oxidation): decreased the percentage of cells that were able to produce ROS; also recorded: decreased the ROS production
[2]
  motor neuron survival (ChAT-positive cells): restored motor neuron survival; also recorded: recovery of motor neuron survival
[2]; listed as Apocynin
  motor neuron survival (ChAT-positive cells): rescued the motor neuron survival
